This note sets out measurements from US20020082254A1, “Compounds for treating disorders where a decreased level of plasma FFA is desired” (priority 2000, published 2002).

The experiment addresses T1, Hepatic lipase (HL) (Homo sapiens, UniProt P11150).
T1 sequence (P11150 23-499): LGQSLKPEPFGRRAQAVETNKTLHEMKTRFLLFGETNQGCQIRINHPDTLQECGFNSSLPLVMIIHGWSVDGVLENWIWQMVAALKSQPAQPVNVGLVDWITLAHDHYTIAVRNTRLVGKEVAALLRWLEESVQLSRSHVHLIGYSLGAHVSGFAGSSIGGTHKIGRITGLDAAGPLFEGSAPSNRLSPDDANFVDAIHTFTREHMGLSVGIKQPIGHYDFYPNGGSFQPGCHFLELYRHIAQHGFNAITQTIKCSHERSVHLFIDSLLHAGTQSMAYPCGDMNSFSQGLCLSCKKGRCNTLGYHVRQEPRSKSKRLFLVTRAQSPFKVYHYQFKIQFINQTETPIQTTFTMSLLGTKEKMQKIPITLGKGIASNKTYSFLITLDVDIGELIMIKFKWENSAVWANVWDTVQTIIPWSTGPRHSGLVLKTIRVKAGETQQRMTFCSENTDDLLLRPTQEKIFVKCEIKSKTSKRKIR
Nature of the experiment: Hepatic lipase (HL) inhibition assay, 3H-triolein substrate. The conditions noted are these: read-out: HL inhibition (% inh. at 50 μM). It counts as biochemical. From the text: Hepatic Lipase (HL) [classified as a triacylglycerol lipase, EC 3.1.1.3, in accordance with the Recommendations of the Nomenclature Committee of the International Union of Biochemistry and Molecular Biology (available on the World Wide Web at the following address: http://www.chem.qmw.ac.uk/iubmb/enzyme/)]
Materials. The hepatic lipase employed was obtained from Dr. Howard Wong of the University of California at Los Angeles (UCLA), USA, or produced and purified using the methods and a cell line provided by Dr. Wong's laboratory. ^3H-triolein (TO) from Amersham, Buckinghamshire, U.K., cat No. TRA191; 5-20 Ci/mmol dissolved in toluene and triolein (Sigma, Cat. No. T-1740). All other reagents are of commercial grade and obtained from various commercial sources.
50 μl TO in a 20 ml scintillation vial and evaporate with N2 for 5 minutes.
Add 1 ml 10% gum arabic and 1.25 ml Tris-Cl pH 8.5 and 2 ml MilliQ water.
Sonicate, on ice, 16 times for 30 seconds with a 30-second interval between cycles.
Add 2.5 ml of 5 M NaCl+2.5 ml BSA (10% in Milli Q, pH 8)+3.25 ml Milli Q
Total volume: 12.5 ml (for 80 reactions )
If an inhibitor is going to be used, it should be incubated with the 50 μl HL (of a 125 mU/ml solution) for 70 minutes at 25° C. A 5 μl aliquot from the incubated 50 μl is added to 150 μl assay mix+45 μl Milli Q™ water and mixed.
Incubate for exactly 30 minutes at 25° C.
Stop the reaction with Methanol:chloroform:heptane 10:9:7: 3.25 ml/vial, mix; then add 1.05 ml buffer (100 mM boric acid, 100 mM potassium carbonate pH 10.5), mix for 10 seconds per vial.
Centrifuge for 20 min/2000 rpm
Take 1 ml of the upper phase+10 ml scintillation fluid and mix by shaking by hand.
Scintillation count for 5 minutes per vial.

What is called inhibition is the share of the control response that was lost under treatment. As for `O=C(NN1CCc2ccccc2C1)Oc1ccc(Cl)cc1` [Example 6, (3,4-Dihydro-1H-isoquinolin-2-yl)-carbamic acid 4-chloro-phenyl Ester], the inhibition at 50 µM amounted to 6%.

`CC(C)(C)OC(=O)Nc1ccc(OC(=O)NN2CCc3ccccc3C2)cc1` [Example 17, (3,4-Dihydro-1H-isoquinolin-2-yl)-carbamic Acid 4-tert-butoxycarbonylamino-phenyl Ester]: the inhibition at 50 µM came to 3%.

In the case of `CC1Cc2ccccc2CN1NC(=O)Oc1ccc(Cl)cc1` (stereo not drawn) [Example 23, (3-Methyl-3,4-dihydro-1H-isoquinolin-2-yl)-carbamic Acid 4-chloro-phenyl Ester], the inhibition at 50 µM was determined as 4%.
